Measured values from patent publication US20040029965A1, “Formulations for reducing or eliminating toxicity of enviromental hormones containing ursodeoxycholic acid” (priority 2000, published 2004).

System: C57B1/6J mice
Experiment: Organ weights (liver, kidneys, testes, epididymides) of mice after a single subcutaneous injection of TCDD
Assay type: in vivo
Experimental: Male C57B1/6J mice of 5 weeks old having the average weight of 18-22 g which had been bred in CRJ (Charles River in Japan) were purchased and used in this example as experimental animals. Those mice were acclimated under the constant breeding condition, i.e. the temperature of 24±1° C., the humidity of 60±10% and the light and darkness cycle of 12 hours, for one week and thereafter, utilized in the experiment.
2,3,7,8-tetrachlorodibenzo-p-dioxin (TCDD) dissolved in toluene (purity of 95% or more as a result of gas chromatography analysis), manufactured by Chem. Services Inc. in USA, was volatilized with nitrogen to obtain powder. The obtained powder was dissolved in a mixed solvent containing acetone and corn oil with a volume ratio of 1:6. The resulting solution each containing 110, 27.5 and 6.9 μg/kg of TCDD was subcutaneously injected to mice at a volume of 5 ml per body weight. […] The mice were supplied with the feed from 10 days before (pre-administration) to 60 days after administration of TCDD (post-administration).
Upon completion of the experiment for 60 days, the experimental animals were fasted for 24 hours and anesthetized with ether. Then, they were abdominally incised and blood was gathered from abdominal vena cava. They were sacrificed by the release of blood. Liver, kidneys, testes and epididymides were extracted and all the extracted organs were weighed. Only the testes were separately kept and observed under optical and electron microscopes. For biochemical finding test, serum was separated from blood with a centrifuge and the separated serum was analyzed with an automated blood biochemical analyzer, Dimension (Dupont, USA). Blood was put to another blood gathering bottle and then, analyzed with an automated blood cell analyzer, Celldyn (Abbott, USA).
The results are expressed as Mean±Standard Deviation values. For statistical analysis of the body weight, feed and water uptake, biochemical findings, hematological findings and the weight of organ in an acute toxicity test, verification was performed by one way analysis of variance (ANOVA) in case of equal distribution. In case significance was recognized in ANOVA, the Student's t-test was performed in the levels of p<0.05 and p<0.01.
The organs, i.e. liver, kidneys, testes and epididymides, were weighed and the results are shown in the following.

[1] = TCDD 6.9 μg/kg + UDCA 0.125 wt %
[2] = TCDD 6.9 μg/kg + UDCA 0.25 wt %
[3] = TCDD 27.5 μg/kg + UDCA 0.125 wt %

## C[C@H](CCC(=O)O)[C@H]1CC[C@H]2[C@@H]3[C@@H](O)C[C@@H]4C[C@H](O)CC[C@]4(C)[C@H]3CC[C@]12C [UDCA, 3α, 7β-dihydroxy-5β-cholanoic acid]
[1]
  Left epididymis Relative weight: 0.121 ± 0.011 %
  Left epididymis Weight: 0.029 ± 0.003 g
  Left kidney Relative weight: 0.480 ± 0.050%
  Left kidney Weight: 0.116 ± 0.014 g
  Left testis Relative weight: 0.297 ± 0.020%
  Left testis Weight: 0.072 ± 0.006 g
  Liver Relative weight: 4.069 ± 0.167%
  Liver Weight: 0.980 ± 0.073 g
  Right epididymis Relative weight: 0.121 ± 0.014%
  Right epididymis Weight: 0.029 ± 0.003 g
  Right kidney Relative weight: 0.511 ± 0.049%
  Right kidney Weight: 0.123 ± 0.008 g
  Right testis Relative weight: 0.304 ± 0.020%
  Right testis Weight: 0.073 ± 0.007 g
[2]
  Left epididymis Relative weight: 0.121 ± 0.011 %
  Left epididymis Weight: 0.030 ± 0.003 g
  Left kidney Relative weight: 0.484 ± 0.036%
  Left kidney Weight: 0.119 ± 0.009 g
  Left testis Relative weight: 0.287 ± 0.036%
  Left testis Weight: 0.071 ± 0.008 g
  Liver Relative weight: 3.870 ± 0.289%
  Liver Weight: 0.954 ± 0.057 g
  Right epididymis Relative weight: 0.115 ± 0.009%
  Right epididymis Weight: 0.029 ± 0.002 g
  Right kidney Relative weight: 0.500 ± 0.048%
  Right kidney Weight: 0.123 ± 0.013 g
  Right testis Relative weight: 0.290 ± 0.030%
  Right testis Weight: 0.072 ± 0.008 g
TCDD 6.9 μg/kg + UDCA 0.5 wt %
  Left epididymis Relative weight: 0.121 ± 0.010 %
  Left epididymis Weight: 0.029 ± 0.003 g
  Left kidney Relative weight: 0.500 ± 0.025%
  Left kidney Weight: 0.121 ± 0.007 g
  Left testis Relative weight: 0.310 ± 0.050%
  Left testis Weight: 0.075 ± 0.010 g
  Liver Relative weight: 4.258 ± 0.327%
  Liver Weight: 1.028 ± 0.073 g
  Right epididymis Relative weight: 0.114 ± 0.015%
  Right epididymis Weight: 0.027 ± 0.004 g
  Right kidney Relative weight: 0.516 ± 0.043%
  Right kidney Weight: 0.125 ± 0.009 g
  Right testis Relative weight: 0.307 ± 0.031%
  Right testis Weight: 0.074 ± 0.007 g
[3]
  Left epididymis Relative weight: 0.112 ± 0.017%
  Left epididymis Weight: 0.027 ± 0.003 g
  Left kidney Relative weight: 0.517 ± 0.056 %
  Left kidney Weight: 0.127 ± 0.012 g
  Left testis Relative weight: 0.284 ± 0.025 %
  Left testis Weight: 0.070 ± 0.005 g
  Liver Relative weight: 4.832 ± 0.327%
  Liver Weight: 1.187 ± 0.086 g
  Right epididymis Relative weight: 0.105 ± 0.015 %
  Right epididymis Weight: 0.026 ± 0.003 g
  Right kidney Relative weight: 0.489 ± 0.055 %
  Right kidney Weight: 0.120 ± 0.013 g
  Right testis Relative weight: 0.285 ± 0.016 %
  Right testis Weight: 0.070 ± 0.003 g
TCDD 27.5 μg/kg + UDCA 0.25 wt %
  Left epididymis Relative weight: 0.120 ± 0.018%
